The test can be described thus: Oxygen Radical Absorbance Capacity (ORAC) antioxidant potential. The class given is biochemical. As to conditions: calculated from ORAC values (AUC minus blank) vs Trolox; test concentration 100 micromolar. The method, then: Antioxidant potential is evaluated using the Oxygen Radical Absorbance Capacity (ORAC) protocol. ORAC is a chemical in-vitro method based on the hydrogen atom transfer (HAT) mechanism (see N. Re et al., Free Radical Biology & Medicine, 26 (9/10), 1231 (1997)). ORAC measures antioxidant inhibition of peroxyl radical induced oxidations and thus reflects classical radical chain breaking antioxidant activity by H atom transfer. In this assay, the peroxyl radical reacts with a fluorescent probe to form a non-fluorescent product. This is quantitated using a fluorescence measurement. Antioxidant capacity is determined by decreased rate and amount of product formed over time. This assay depends upon the free radical damage to the fluorescent probe resulting in the change in its fluorescence intensity. The change of fluorescence intensity is an indicator of the degree of free radical damage. In the presence of an antioxidant, the inhibition of free radical damage is reflected in higher fluorescence intensity and can be measured as antioxidant capacity against the free radicals. The uniqueness of ORAC assay is that the reaction is driven to completion. This allows calculation of the area under the curve (AUC) and gives an absolute quantitation of antioxidancy as opposed to relative measurements in many other assays.
As noted, the longer it takes to observe a decrease in fluorescence, the higher the antioxidant (AO) potential. From the AUC for a given antioxidant, the AUC for blank is subtracted to give its ORAC value. The concentration of AO needed to give the same AUC values as Trolox is calculated and used to represent the Trolox equivalent AO Capacity (TEAC). Trolox is ((±)-6-Hydroxy-2,5,7,8-tetramethylchromane-2-carboxylic acid, CAS #53188-07-1), and is used as an internal control.
The ORAC test is conducted in the stilbene-pendant nitrone compounds of Table 1 above (inventive compounds) as well as to Vitamin C, Vitamin E, and the following comparative compounds:
The inventive stilbene-pendant nitrones in the ORAC test solutions were at a concentration of 100 micromolar, while the concentrations of Trolox, Vitamin C, Vitamin E, BHT, PBN+BHT, and VAL-IPHA were at 100 micromolar. The TEAC values calculated from the ORAC values are listed the Table 3.
Take `CC(C)(C)/[N+]([O-])=C/c1ccccc1` [PBN, 2-Phenyl-N-tert-butylnitrone, reference compound]: the “TEAC (Trolox equivalent AO Capacity)” value is “not very high”.

Turning to `COc1cc(/C=C/c2ccc(O)c(/C=[N+](/[O-])Cc3ccc(O)cc3)c2)ccc1O` [Sald-pHBzHA, N-(2-Hydroxy-5-(4-hydroxy-3-methoxystyryl)benzylidene)-1-hydroxyphenylmethanamine oxide], the “TEAC (Trolox equivalent AO Capacity)” value is 9.02.

Turning to `O=C1O[C@H]([C@@H](O)CO)C(O)=C1O` [Vitamin C, reference compound], the “TEAC (Trolox equivalent AO Capacity)” value is 0.76.

As for Vitamin E [reference compound], the “TEAC (Trolox equivalent AO Capacity)” value is 0.13.

Turning to `COc1cc(/C=C/c2ccc(O)c(/C=[N+](/[O-])Cc3ccc(O)cc3O)c2)ccc1O` [Sald-24DHBzHA, N-(2-Hydroxy-5-(4-hydroxy-3-methoxystyryl)benzylidene)-1-(2,4-dihydroxyphenyl)methanamine oxide], the “TEAC (Trolox equivalent AO Capacity)” value was 7.31.

With `COc1cc(/C=C/c2ccc(O)c(/C=[N+](/[O-])Cc3ccc(O)c(O)c3)c2)ccc1O` [Sald-34-DHBzHA, N-(2-Hydroxy-5-(4-hydroxy-3-methoxystyryl)benzylidene)-1-(3,4-dihydroxyphenyl)methanamine oxide], the “TEAC (Trolox equivalent AO Capacity)” value is reported as 7.16.

As to `COc1cc(/C=C/c2ccc(O)c(/C=[N+](/[O-])Cc3ccccc3)c2)ccc1O` [Sald-BzHA, N-(2-Hydroxy-5-(4-hydroxy-3-methoxystyryl)benzylidene)-1-phenylmethanamine oxide], the “TEAC (Trolox equivalent AO Capacity)” value is given as 8.33.

Source of the values: patent US9730874B2, “Nitrone compounds and their use in personal care” (Dow Global Technologies LLC, priority 2014, dated 2017).
